In ChEMBL document CHEMBL6103573, “Discovery of novel thienopyridine indole derivatives as inhibitors of tubulin polymerization targeting the colchicine-binding site with potent anticancer activities” (Eur J Med Chem, 2025):
Calls of active or inactive are those of the source. No cut-off for these calls is given here.

What was measured:
Tubulin (Homo sapiens) [1] = molecular target: T1, Tubulin (Homo sapiens) (UniProt P68371+Q9H4B7+P0DPH7+P68366+Q13509+Q71U36+P04350+Q3ZCM7+P07437+P68363+Q9BQE3+Q6PEY2+Q13885+Q9BVA1+Q9BUF5); test: Disruption of microtubule network in human HGC-27 cells assessed as appearance of multinucleation at 0.25 to 2.0 nmol/L incubated for 24 hrs by DAPI staining based fluorescence microscopic analysis; format: cell-based; details: dose 0.25-2 nmol/L
Tubulin (Homo sapiens) [2] = molecular target: T1, Tubulin (Homo sapiens); test: Inhibition of tubulin (unknown origin) polymerization assessed as decrease in fluorescence intensity at 3 micromol/L in the presence of GTP by fluorescence microplate reader; format: protein-complex assay; details: dose 3.0 µmol/L
HGC-27 [3] = test: Induction of apoptosis in human HGC-27 cells assessed as nuclei shrinkage at 0.25 to 2.0 nmol/L incubated for 48 hrs by DAPI staining based analysis; format: functional, cell-based; details: dose 0.25-2 nmol/L
HGC-27 [4] = test: Induction of apoptosis in human HGC-27 cells assessed as increase in total apoptotic rate at 2 nmol/L incubated for 48 hrs by Annexin V-FITC/propidium iodide staining based flow cytometry analysis relative to control; format: functional
MGC-803 [5] = test: Induction of apoptosis in human MGC-803 cells assessed as late apoptotic cells at 0.5 nmol/L incubated for 48 hrs by Annexin V-FITC/propidium iodide staining based flow cytometry analysis (reference value: 2.22 %); format: functional
HUVEC [6] = test: Anti-migratory activity against HUVEC cells assessed as wound healing rate at 0.5 nmol/L measured after 24 hrs by wound healing assay (reference value: 97 %); format: functional, Homo sapiens
HGC-27 [7] = test: Induction of apoptosis in human HGC-27 cells assessed as appearance of round cells at 0.25 to 2.0 nmol/L incubated for 48 hrs by bright field microscopic analysis; format: functional, cell-based; details: dose 0.25-2 nmol/L
MGC-803 [8] = test: Induction of cell cycle arrest in human MGC-803 cells assessed as downregulation of Wee1 level measured after 48 hrs by Western blot analysis; format: functional, cell-based; details: dose 0.25-2 nmol/L
MGC-803 [9] = test: Induction of apoptosis in human MGC-803 cells assessed as nuclei shrinkage at 0.25 to 2.0 nmol/L incubated for 48 hrs by DAPI staining based analysis; format: functional, cell-based; details: dose 0.25-2 nmol/L
HGC-27 [10] = test: Antiproliferative activity against human HGC-27 cells assessed as survival rate at 2 nmol/L measured after 48 hrs by MTT assay relative to control; format: functional; details: read-out: Survival
HUVEC [11] = test: Anti-migratory activity against HUVEC cells assessed as wound healing rate at 1 nmol/L measured after 24 hrs by wound healing assay (reference value: 97 %); format: functional, Homo sapiens
ECa-109 cell line = test: Antiproliferative activity against human EC109 cells assessed as inhibition of cell proliferation incubated for 48 hrs by MTT assay; format: functional, cell-based; details: ECa-109, 48 h
[12] = molecular target: Tubulin beta (Homo sapiens) (UniProt P68371+Q9H4B7+Q13509+P04350+Q3ZCM7+P07437+Q13885+Q9BVA1+Q9BUF5+A6NNZ2); test: Competitive binding affinity to beta-tubulin colchicine binding site in human MGC-803 cells assessed as inhibition of EBI-beta-tubulin adduct band formation by measuring reduction in adduct band intensity preincubated for 2 hrs followed by EBI addition and measured after 2 hrs by Western blotting analysis; format: cell-based; details: dose 0.1-1 µmol/L, time 4.0 hrs
HGC-27 [13] = test: Antiproliferative activity against human HGC-27 cells assessed as inhibition of cell proliferation incubated for 48 hrs by MTT assay; format: functional, cell-based; details: HGC-27, 48 h
HGC-27 [14] = test: Inhibition of colony formation in human HGC-27 cells incubated for 7 days by crystal violet staining based colony formation assay; format: functional, cell-based; details: dose 0.1-0.5 nmol/L, time 7.0 day
HGC-27 [15] = test: Antiproliferative activity against human HGC-27 cells by MTT assay; format: functional, cell-based; details: dose 0.25-2 nmol/L
HUVEC [16] = test: Anti-migratory activity against HUVEC cells assessed as wound healing rate at 2.0 nmol/L measured after 24 hrs by wound healing assay (reference value: 97 %); format: functional, Homo sapiens
MGC-803 [17] = test: Induction of apoptosis in human MGC-803 cells assessed as increase in dead to live cells ratio at 0.25 to 2.0 nmol/L incubated for 48 hrs by Calcein-AM/PI staining based analysis; format: functional, cell-based; details: dose 0.25-2 nmol/L
HGC-27 [18] = test: Induction of apoptosis in human HGC-27 cells assessed as late apoptotic cells at 0.5 nmol/L incubated for 48 hrs by Annexin V-FITC/propidium iodide staining based flow cytometry analysis (reference value: 3.70 %); format: functional
HGC-27 [19] = test: Induction of apoptosis in human HGC-27 cells incubated for 48 hrs by Annexin V-FITC/propidium iodide staining based flow cytometry analysis; format: functional, cell-based; details: dose 0.25-2 nmol/L
[20] = Cytotoxicity against human GES1 cells assessed as inhibition of cell proliferation incubated for 48 hrs by MTT assay; format: toxicity, cell-based
MGC-803 [21] = test: Induction of apoptosis in human MGC-803 cells assessed as increase in cleaved PARP expression at 0.25 to 2.0 nmol/L incubated for 48 hrs by Western blotting analysis; format: functional, cell-based; details: dose 0.25-2 nmol/L
HUVEC [22] = test: Anti-angiogenesis activity in HUVEC cells assessed as effect on cell vitality at <= 1 nmol/L measured within 24 hrs; format: functional, cell-based; details: Homo sapiens
MGC-803 [23] = test: Induction of apoptosis in human MGC-803 cells assessed as early apoptotic cells at 1.5 nmol/L incubated for 48 hrs by Annexin V-FITC/propidium iodide staining based flow cytometry analysis (reference value: 0.83 %); format: functional
HGC-27 [24] = test: Induction of apoptosis in human HGC-27 cells assessed as increase in nuclei brightness at 0.25 to 2.0 nmol/L incubated for 48 hrs by DAPI staining based analysis; format: functional, cell-based; details: dose 0.25-2 nmol/L
MGC-803 [25] = test: Antiproliferative activity against human MGC-803 cells assessed as survival rate at 2 nmol/L measured after 48 hrs by MTT assay relative to control; format: functional; details: read-out: Survival
HUVEC [26] = test: Anti-angiogenesis activity in HUVEC cells assessed as reduction in cell viability incubated from 12 to 48 hrs by MTT assay; format: functional, cell-based; details: Homo sapiens, dose < 2.0 nmol/L, time 12-48 hrs
HUVEC [27] = test: Anti-angiogenesis activity in HUVEC cells assessed as reduction in cell viability by measuring survival rate at 2 nmol/L incubated for 12 hrs by MTT assay relative to control; format: functional; details: Homo sapiens, read-out: Survival
HGC-27 [28] = test: Induction of apoptosis in human HGC-27 cells assessed as late apoptotic cells at 0.25 nmol/L incubated for 48 hrs by Annexin V-FITC/propidium iodide staining based flow cytometry analysis (reference value: 3.70 %); format: functional
HGC-27 [29] = test: Induction of apoptosis in human HGC-27 cells assessed as increase in cleaved PARP expression at 0.25 to 2.0 nmol/L incubated for 48 hrs by Western blotting analysis; format: functional, cell-based; details: dose 0.25-2 nmol/L
MGC-803 [30] = test: Antiproliferative activity against human MGC-803 cells assessed as inhibition of cell proliferation incubated for 48 hrs by MTT assay; format: functional, cell-based; details: MGC-803, 48 h
MGC-803 [31] = test: Antitumor activity against human MGC-803 cells xenografted in female BALB/c-nu nude mouse assessed as increase in cleaved PARP level in tumor at 5 mg/kg, po administrated […] for 11 times and measured after 21 days by immunohistochemical analysis; format: functional, organism-based; details: time 21.0 day
HGC-27 [32] = test: Induction of cell cycle arrest in human HGC-27 cells assessed as accumulation of cells at G2/M phase at 2 nmol/L incubated for 24 hrs by RNase A/propidium iodide staining based flow cytometric analysis relative to control; format: functional
HGC-27 [33] = test: Induction of apoptosis in human HGC-27 cells assessed as early apoptotic cells at 1.0 nmol/L incubated for 48 hrs by Annexin V-FITC/propidium iodide staining based flow cytometry analysis (reference value: 2.04 %); format: functional

With `CN(c1ccc2c(ccn2C)c1)c1nc(N2CCCC2)nc2sccc12` the Activity (Tubulin (Homo sapiens) [1]) was “Active”, the inhibition (Tubulin (Homo sapiens) [2]) was “Active” and the Activity (HGC-27 [3]) was “Active”. For the same molecule, the Activity (HGC-27 [4]) was 14%, the Activity (MGC-803 [5]) was 2.84% and the Activity (HUVEC [6]) was 82%. The Activity (HGC-27 [7]) was “Active”, the Activity (MGC-803 [8]) was “Dose-dependent-effect” and the Activity (MGC-803 [9]) was “Active”. It also gave a viability at 0.002 µM (HGC-27 [10]) of 48%, an Activity (HUVEC [11]) of 58% and an IC50 (ECa-109 cell line) of 2.19 nM. The Activity [12] was “Dose-dependent-effect”, the IC50 (HGC-27 [13]) was 1.82 nM and the inhibition (HGC-27 [14]) was “Dose-dependent-effect”. The Activity (HGC-27 [15]) was “Dose-dependent-effect”, the Activity (HUVEC [16]) was 44% and the Activity (MGC-803 [17]) was “Active”. The Activity (HGC-27 [18]) was 3.5%, the Activity (HGC-27 [19]) was “Dose-dependent-effect” and the IC50 at 48 h [20] was 31.1 nM. The Activity (MGC-803 [21]) was “Active”, the Activity (HUVEC [22]) was “Active; Minimal Impact Observed” and the Activity (MGC-803 [23]) was 43.09%. The Activity (HGC-27 [24]) was “Active”, the viability at 0.002 µM (MGC-803 [25]) was 35% and the Activity (HUVEC [26]) was “Dose-dependent-effect”. The viability at 0.002 µM (HUVEC [27]) was 75.6%, the Activity (HGC-27 [28]) was 3.14% and the Activity (HGC-27 [29]) was “Active”. For the same molecule, the IC50 (MGC-803 [30]) was 1.61 nM, the Activity (MGC-803 [31]) was “Active” and the Activity (HGC-27 [32]) was 43.9%. For the same molecule, the Activity (HGC-27 [33]) was 11.52%.
